Consider 17 molecules from patent US20250313569A1, “Pharmaceutical Compounds And Compositions As Modulators Of MAS-Related G-Protein Receptor X2” (Enanta Pharmaceuticals, Inc., priority 2024, published 2025).

Test [1] concerns the target T1, human MRGPRX2 (Homo sapiens, UniProt Q96LB1).
T1 construct: expressed in transfected cells; host or cells: HEK293
T1 sequence (Q96LB1 1-330): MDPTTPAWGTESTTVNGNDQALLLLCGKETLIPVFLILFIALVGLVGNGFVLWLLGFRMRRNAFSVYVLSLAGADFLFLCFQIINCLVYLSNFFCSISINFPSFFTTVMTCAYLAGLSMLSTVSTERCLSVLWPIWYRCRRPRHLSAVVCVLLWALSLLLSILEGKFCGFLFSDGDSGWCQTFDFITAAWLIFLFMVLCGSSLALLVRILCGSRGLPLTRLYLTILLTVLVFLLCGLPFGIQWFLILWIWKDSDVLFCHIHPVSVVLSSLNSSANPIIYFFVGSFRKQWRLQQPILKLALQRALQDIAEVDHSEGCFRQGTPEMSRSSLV
The test can be described thus: MRGPRX2 IP-1 Gq HTRF assay in HEK293 cells stably expressing human MRGPRX2, Cortistatin-14 at EC75. Type of test: cell-based. The following applies: 2 hours at 37° C., cellular IP-1. As for the experimental part: HEK293 cells stably expressing human MRGPRX2 were grown in Dulbecco's Modified Eagle Medium (DMEM) supplemented with 10% fetal bovine serum (FBS), 1% Glutamax, and 1 μg/mL of puromycin. Cells were maintained in a 37° C., 5% CO2 humidified incubator.
Cells were plated in a 384-well assay plate at a density of 20,000 cells per well overnight. Compounds were solubilized at 10 mM in DMSO and added as a 10-point curve using an ECHO acoustic liquid handler. On the day of the assay, Cortistatin-14 was diluted in assay buffer (provided by IP-One-Gq-HTRF kit purchased from Cisbio, 62IPAPEJ) and added to the assay plate at a final concentration corresponding to the predetermined EC75. Plates were incubated at 37° C. for 2 hours prior to addition of HTRF detection reagents per the manufacturer's instructions. The plates were read on a Perkin Elmer Envision plate reader. The HTRF ratio and cellular IP-1 levels were calculated. XLfit was used to calculate an EC50 value for each compound using a 4-parameter logistic curve fitting model. EC50 ranges are reported as follows: A<100 nM; B 0.1-1 μM; C>1 μM.

The target in test [2] is T2, MRGPRX2 LAD2 (Homo sapiens, UniProt Q96LB1).
T2 construct: host or cells: LAD2 human mast cells
T2 sequence (Q96LB1 1-330): T1 sequence (Q96LB1 1-330)
The test can be described thus: LAD2 β-hexosaminidase release assay (degranulation), Cortistatin-14 at EC75. Type of test: cell-based. The following applies: LAD2 cells; 1 hour compound incubation, Cortistatin-14 at EC75 for 30 minutes; percent degranulation (β-hexosaminidase). The procedure: LAD2 cells obtained from the NIH were cultured in StemPro34 (Gibco) serum-free media supplemented with GlutaMax, penicillin and streptomycin, and 100 ng/mL SCF (Invitrogen). Cells were maintained in a 37° C., 5% CO2 humidified incubator at a concentration of 2-5E5 cells/mL, with hemidepletion once a week.
One day prior to the assay, cells were starved of SCF at a concentration of 2.3E5 cells/mL. On the day of the assay cells were washed twice in Tyrode's Buffer containing 0.04% BSA (assay buffer) and plated in a 96 well-v-bottom assay plate at 20,000 cells per well in 80 μL of assay buffer. Compounds were solubilized at 10 mM DMSO and added as a 10-fold overconcentrated 8-point curve in assay buffer in a volume of 10 μL using the JANUS liquid handler. Assay plates were incubated for 1 hour at 37° C. Cortistatin-14 was diluted in assay buffer to […] its predetermined EC75 and added to the assay plates in a volume of 10 μL. Assay plates were incubated at 37° C. for 30 minutes. After incubation, cells were pelleted and 50 μL of supernatant from each well was transferred to a 96 well flat bottom plate containing 100 μL of substrate solution (3.5 mg/mL p-Nitrophenyl-N-acetyl-β-D-glucosaminide (Sigma Aldrich) in 40 mM Citrate Buffer (Thermo Fisher)). The remaining cell pellets were lysed with 150 μL of 0.1% Triton-X-100 and mixed thoroughly. 50 μL of lysate was transferred to a 96-well flat bottom plate containing 100 μL of substrate solution. Plates with supernatants and lysates were incubated at 37° C. for 90 minutes prior to addition of 50 μL of 400 mM Glycine buffer (pH 10.7). The plates were read on a Perkin Elmer Envision plate reader at an Abs of 405 nanometers. Percent degranulation was calculated and Xlfit was used to calculate an EC50 value for each compound using a 4-parameter logistic curve fitting model. EC50 ranges are reported as follows: A<100 nM; B 0.1-1 μM; C>1 μM.

What is called EC50 is the concentration giving half of the maximal effect. Read a low EC50 as an effect from little substance.

`CC(=O)N1C[C@@H](NC(=O)c2cccc(C(C)(C)O)c2)C[C@@H](Nc2cc(C(F)(F)F)nc3ccc(Cl)cc23)C1` [Example 41]: the concentration giving a half-maximal response (EC50) is 100 to 1000 nM in test [1] and under 100 nM in test [2].

`CN(C)C(=O)N1C[C@@H](NC(=O)c2cccc(NS(C)(=O)=O)c2)C[C@@H](Nc2cc(C(F)(F)F)nc3ccc(Cl)cc23)C1` [Example 10]: the half-maximal effective concentration (EC50) in test [1] is 100 to 1000 nM; in test [2], under 100 nM.

`CC(=O)N1C[C@@H](NC(=O)c2cnn(C)c2)C[C@@H](Nc2cc(C(F)(F)F)nc3ccc(Cl)cc23)C1` [Example 30]: the EC50 in test [1] and in test [2] was under 100 nM each time.

In the case of `CS(=O)(=O)Nc1cccc(C(=O)N[C@H]2C[C@@H](Nc3cc(C(F)(F)F)nc4ccc(Cl)cc34)CN(C(=O)c3ccccc3)C2)c1` [Example 1], the EC50 in test [1] was 100 to 1000 nM; in test [2] it was under 100 nM.

Regarding `CC(=O)N1C[C@@H](NC(=O)c2cccc(C(F)F)c2)C[C@@H](Nc2cc(C(F)(F)F)nc3ccc(Cl)cc23)C1` [Example 42], the EC50 in test [1] and in test [2] was under 100 nM each time.

Consider `CS(=O)(=O)Nc1cccc(C(=O)N[C@H]2C[C@@H](Nc3cc(C(F)(F)F)nc4ccc(Cl)cc34)CN(S(=O)(=O)c3ccccc3)C2)c1` [Example 4], for which the concentration for a half-maximal effect (EC50) is 100 to 1000 nM in test [1] and under 100 nM in test [2].

As for `CC(=O)N1C[C@@H](NC(=O)c2cccc(NS(=O)(=O)C(F)(F)F)c2)C[C@@H](Nc2cc(C(F)(F)F)nc3ccc(Cl)cc23)C1` [Example 43], the EC50 is 100 to 1000 nM in test [1] and under 100 nM in test [2].

Regarding `CC(=O)N1C[C@@H](NC(=O)c2cnn(C3CC3)c2)C[C@@H](Nc2cc(C(F)(F)F)nc3ccc(Cl)cc23)C1` [Example 32], the 50% effective concentration (EC50) in test [1] and in test [2] was 100 to 1000 nM throughout.

Regarding `COC(=O)N1C[C@@H](NC(=O)c2cccc(NS(C)(=O)=O)c2)C[C@@H](Nc2cc(C(F)(F)F)nc3ccc(Cl)cc23)C1` [Example 5], the concentration for a half-maximal effect (EC50) in test [1] and in test [2] was under 100 nM throughout.

As to `COc1ccc(C(=O)N[C@H]2C[C@@H](Nc3cc(C(F)(F)F)nc4ccc(Cl)cc34)CN(C(C)=O)C2)cc1` [Example 25], the EC50 in test [1] and in test [2] was under 100 nM each time.

For `CC(=O)N1C[C@@H](NC(=O)c2cnn(CC(F)(F)F)c2)C[C@@H](Nc2cc(C(F)(F)F)nc3ccc(Cl)cc23)C1` [Example 29], the EC50 in test [1] and in test [2] was under 100 nM throughout.

In the case of `CS(=O)(=O)Nc1cccc(C(=O)N[C@H]2C[C@@H](Nc3cc(C(F)(F)F)nc4ccc(Cl)cc34)CN(C(=O)C(F)(F)F)C2)c1` [Example 8], the EC50 was 100 to 1000 nM in test [1] and under 100 nM in test [2].

`CS(=O)(=O)Nc1cccc(C(=O)N[C@@H]2COC[C@H](Nc3cc(C(F)(F)F)nc4ccc(Cl)cc34)C2)c1` (racemic) [Example 44, N-(cis-5-((6-chloro-2-(trifluoromethyl)quinolin-4-yl)amino)tetrahydro-2H-pyran-3-yl)-3-(methylsulfonamido)benzamide]: the concentration giving a half-maximal response (EC50) in test [1] and in test [2] was under 100 nM in each case.

Consider `CC(=O)N1C[C@@H](NC(=O)c2cccc(C#N)c2)C[C@@H](Nc2cc(C(F)(F)F)nc3ccc(Cl)cc23)C1` [Example 24], for which the EC50 in test [1] and in test [2] was under 100 nM throughout.

On to `CS(=O)(=O)Nc1cccc(C(=O)N[C@H]2C[C@@H](Nc3cc(C(F)(F)F)nc4ccc(Cl)cc34)CN(S(C)(=O)=O)C2)c1` [Example 3], for which the figures for the EC50 in test [1] and in test [2] were 100 to 1000 nM and under 100 nM, respectively.

As for `CC(=O)N1C[C@@H](NC(=O)c2cccc(NS(C)(=O)=O)c2)C[C@@H](Nc2cc(C(F)(F)F)nc3ccc(Cl)cc23)C1` [Example 2], the concentration giving a half-maximal response (EC50) in test [1] and in test [2] was under 100 nM in each case.

Regarding `CNC(=O)N1C[C@@H](NC(=O)c2cccc(NS(C)(=O)=O)c2)C[C@@H](Nc2cc(C(F)(F)F)nc3ccc(Cl)cc23)C1` [Example 9], the EC50 in test [1] and in test [2] was 100 to 1000 nM throughout.
